# Test results published in patent publication US20200163984A1, “USE OF ISOVALERYL SPIRAMYCIN I, II AND/OR III IN MANUFACTURING MEDICAMENT FOR TREATING AND/OR PREVENTING TUMOR, AND MEDICAMENT” (SHENYANG FUYANG PHARMACEUTICAL TECHNOLOGY CO., LTD., priority 2017, published 2020).
# Key:
# [1] = test system: transplanted tumor of human large cell lung cancer H460 cells; assay: H460 transplanted tumor in nude mice
# Description: (§1) Then cell concentration was adjusted to 1×10^7/ml with matrigel, then each nude mouse was inoculated subcutaneously with 0.2 ml of cells at its right armpit and recorded as the first day of inoculation. When the tumor grows to be greater than or equal to 100 mm^3, the mice were randomly divided into 11 groups with 6 mice in each group: isovaleryl spiramycin I groups with doses of 25, 50 and 100 mg/kg, isovaleryl spiramycin II groups with doses of 25, 50 and 100 mg/kg, and isovaleryl spiramycin III groups with doses of 25, 50 and 100 mg/kg. Each group was continuously administered intragastrically for 30 days with a dose of 20 ml/kg. The mice were sacrificed the next day after drug withdrawal and the indicators were tested. The long diameter and short diameter of the tumor, and the body weight of each mouse were recorded every 3 days from drug administration to nude mouse sacrifice.
# (§2) The body weight of the nude mice and the long diameter (a) and short diameter (b) of the transplanted tumor were measured every 3 days, and the tumor volume (v), relative tumor volume (RTV) and relative tumor proliferation rate (T/C) are calculated respectively according to the following formulas, wherein V=a×b^2/2; RTV=V/V0 (V0 is the tumor volume before administration, V is the tumor volume before sacrifice), and T/C (%)=treatment group RTV/model control group RTV×100%.
# (§3) Each mouse was weighed and sacrificed. After the tumor was completely stripped off from the body of the mouse, the non-tumor tissues such as blood stains and fat were removed to weigh the tumor and calculate the tumor growth inhibition rate. The average tumor weight of each group of mice is used as an indicator of efficacy. Tumor growth inhibition rate (%)=(1−the average tumor weight of the treatment group/the average tumor weight of the model group)×100%.
# [2] = test system: transplanted tumor of human pancreatic cancer cell PANC-1; assay: PANC-1 transplanted tumor in nude mice; details: for Tumor Volume (mm3) (d 1): d1
# Description: as §1, with “group: a model group, a cyclophosphamide group,” for “group:”
# as §2, §3
# [3] = test system: transplanted tumor of human esophageal cancer cell TE-1; assay: TE-1 transplanted tumor in nude mice
# Description: as §1, with “group: a model group, a cyclophosphamide group,” for “group:”
# as §2, §3
# [4] = test system: transplanted tumor of human renal clear cell adenocarcinoma cell 786-O; assay: 786-O transplanted tumor in nude mice; details: for Tumor Volume (mm3) (d 1): d1
# Description: as §1, with “786-O cells in a logarithmic growth phase were taken and subjected to a trypan blue exclusion experiment showing that the cell viability was more than 95%, then the cells were subjected to trypsinization, centrifugation, and supernatant removal. Then” for “Then”, “group: a model group, a cyclophosphamide group,” for “group:”
# as §2, §3
# [5] = H460, 25 mg/kg (low dose) i.g. 30 days
# [6] = H460, 50 mg/kg (medium dose) i.g. 30 days
# [7] = H460, 100 mg/kg (high dose) i.g. 30 days
# [8] = PANC-1, 12.5 mg/kg (low dose) i.g. 30 days
# [9] = PANC-1, 25 mg/kg (medium dose) i.g. 30 days
# [10] = PANC-1, 50 mg/kg (high dose) i.g. 30 days
# [11] = TE-1, 12.5 mg/kg (low dose) i.g. 30 days
# [12] = TE-1, 25 mg/kg (medium dose) i.g. 30 days
# [13] = TE-1, 50 mg/kg (high dose) i.g. 30 days
# [14] = 786-O, high dose (100 mg/kg in method) i.g. 30 days
# [15] = 786-O, low dose (25 mg/kg in method) i.g. 30 days
# [16] = 786-O, medium dose (50 mg/kg in method) i.g. 30 days
smiles,measurement,setting,value
"COC1C(OC(C)=O)CC(=O)OC(C)CC=CC=CC(OC2CCC(N(C)C)C(C)O2)C(C)CC(CC=O)C1OC1OC(C)C(OC2CC(C)(O)C(OC(=O)CC(C)C)C(C)O2)C(N(C)C)C1O (centres unmarked) [Isovaleryl spiramycin II, isovaleryl spiramycin II]",Inhibition Rate (tumor growth inhibition rate),[1]; [5],14.22%
same,Relative Tumor Proliferation Rate (T/C),[1]; [5],51.97%
same,Relative Tumor Volume (RTV),[1]; [5],5.46 ± 1.87
same,Tumor Volume (d 1),[1]; [5],147.44 ± 15.40 mm3
same,Tumor Volume (d 30),[1]; [5],804.17 ± 292.57 mm3
same,Tumor Weight,[1]; [5],1.48 ± 0.24 g
same,Inhibition Rate (tumor growth inhibition rate),[1]; [6],34.43%
same,Relative Tumor Proliferation Rate (T/C),[1]; [6],46.49%
same,Relative Tumor Volume (RTV),[1]; [6],4.88 ± 1.36
same,Tumor Volume (d 1),[1]; [6],146.77 ± 18.26 mm3
same,Tumor Volume (d 30),[1]; [6],700.40 ± 143.83 mm3
same,Tumor Weight,[1]; [6],1.13 ± 0.08 g
same,Inhibition Rate (tumor growth inhibition rate),[1]; [7],61.12%
same,Relative Tumor Proliferation Rate (T/C),[1]; [7],37.89%
same,Relative Tumor Volume (RTV),[1]; [7],3.98 ± 1.10
same,Tumor Volume (d 1),[1]; [7],149.76 ± 13.12 mm3
same,Tumor Volume (d 30),[1]; [7],604.38 ± 195.98 mm3
same,Tumor Weight,[1]; [7],0.67 ± 0.20 g
same,tumor volume and relative tumor volume compared with the model group,"[1]; H460, low, medium and high doses, P<0.05",significantly lower
same,mouse weight compared with the model group,"[1]; mouse, in vivo",no significant changes
same,Inhibition Rate (tumor growth inhibition rate),[2]; [8],20.55%
same,Tumor Weight,[2]; [8],2.16 ± 0.51 g
same,Inhibition Rate (tumor growth inhibition rate),[2]; [9],41.72%
same,Tumor Weight,[2]; [9],1.58 ± 0.51 g
same,Inhibition Rate (tumor growth inhibition rate),[2]; [10],56.81%
same,Tumor Weight,[2]; [10],1.17 ± 0.47 g
same,Relative Tumor Proliferation Rate (T/C),"[2]; PANC-1, high dose i.g. 30 days",44.44%
same,Relative Tumor Proliferation Rate (T/C),"[2]; PANC-1, low dose i.g. 30 days",79.23%
same,tumor volume and relative tumor volume compared with the model group,"[2]; PANC-1, low, medium and high doses, P<0.05",significantly lower
same,Relative Tumor Proliferation Rate (T/C),"[2]; PANC-1, medium dose i.g. 30 days",60.58%
same,Relative Tumor Proliferation Rate (T/C),"[2]; PANC-1 nude mice, 12.5 mg/kg",79.23%
same,Relative Tumor Volume (RTV),"[2]; PANC-1 nude mice, 12.5 mg/kg",13.87 ± 1.53
same,Tumor Volume (mm3) (d 1),"[2]; PANC-1 nude mice, 12.5 mg/kg",104.64 ± 10.69 mm3
same,Tumor Volume (mm3) (d30),"[2]; PANC-1 nude mice, 12.5 mg/kg",1450.36 ± 218.20 mm3
same,Relative Tumor Proliferation Rate (T/C),"[2]; PANC-1 nude mice, 25 mg/kg",60.58%
same,Relative Tumor Volume (RTV),"[2]; PANC-1 nude mice, 25 mg/kg",10.60 ± 1.10
same,Tumor Volume (mm3) (d 1),"[2]; PANC-1 nude mice, 25 mg/kg",105.81 ± 11.20 mm3
same,Tumor Volume (mm3) (d30),"[2]; PANC-1 nude mice, 25 mg/kg",1113.42 ± 71.14 mm3
same,Relative Tumor Proliferation Rate (T/C),"[2]; PANC-1 nude mice, 50 mg/kg",44.45%
same,Relative Tumor Volume (RTV),"[2]; PANC-1 nude mice, 50 mg/kg",7.78 ± 1.71
same,Tumor Volume (mm3) (d 1),"[2]; PANC-1 nude mice, 50 mg/kg",119.69 ± 14.63 mm3
same,Tumor Volume (mm3) (d30),"[2]; PANC-1 nude mice, 50 mg/kg",914.69 ± 130.26 mm3
same,mouse weight compared with the model group,"[2]; mouse, in vivo",no significant changes
same,Inhibition Rate (tumor growth inhibition rate),[3]; [11],24.87%
same,Relative Tumor Proliferation Rate (T/C),[3]; [11],70.32%
same,Relative Tumor Volume (RTV),[3]; [11],7.92 ± 6.86
same,Tumor Volume (d 1),[3]; [11],134.33 ± 57.77 mm3
same,Tumor Volume (d 30),[3]; [11],1027.37 ± 363.55 mm3
same,Tumor Weight,[3]; [11],1.18 ± 0.60 g
same,Inhibition Rate (tumor growth inhibition rate),[3]; [12],43.78%
same,Relative Tumor Proliferation Rate (T/C),[3]; [12],50.51%
same,Relative Tumor Volume (RTV),[3]; [12],6.99 ± 5.39
same,Tumor Volume (d 1),[3]; [12],195.76 ± 76.95 mm3
same,Tumor Volume (d 30),[3]; [12],1075.36 ± 720.20 mm3
same,Tumor Weight,[3]; [12],0.88 ± 0.46 g
same,Inhibition Rate (tumor growth inhibition rate),[3]; [13],72.48%
same,Relative Tumor Proliferation Rate (T/C),[3]; [13],36.49%
same,Relative Tumor Volume (RTV),[3]; [13],6.97 ± 7.85
same,Tumor Volume (d 1),[3]; [13],143.85 ± 16.25 mm3
same,Tumor Volume (d 30),[3]; [13],570.92 ± 293.97 mm3
same,Tumor Weight,[3]; [13],0.43 ± 0.26 g
same,tumor volume and relative tumor volume compared with the model group,"[3]; TE-1, low, medium and high doses, P<0.05",significantly lower
same,mouse weight compared with the model group,"[3]; mouse, in vivo",no significant changes
same,Inhibition Rate (%),"[4]; 786-O nude mice, 25 mg/kg",19.69%
same,Relative Tumor Proliferation Rate (T/C),"[4]; 786-O nude mice, 25 mg/kg",76.92%
same,Relative Tumor Volume (RTV),"[4]; 786-O nude mice, 25 mg/kg",14.62 ± 1.93
same,Tumor Weight,"[4]; 786-O nude mice, 25 mg/kg",1.72 ± 0.27 g
same,Tumor Volume (mm3) (d 1),"[4]; 786-O nude mice, 25 mg/kg",96.82 ± 8.52 mm3
same,Tumor Volume (mm3) (d30),"[4]; 786-O nude mice, 25 mg/kg",1415.80 ± 201.11 mm3
same,Inhibition Rate (%),"[4]; 786-O nude mice, 50 mg/kg",41.09%
same,Relative Tumor Proliferation Rate (T/C),"[4]; 786-O nude mice, 50 mg/kg",53.61%
same,Relative Tumor Volume (RTV),"[4]; 786-O nude mice, 50 mg/kg",10.19 ± 2.62
same,Tumor Weight,"[4]; 786-O nude mice, 50 mg/kg",1.26 ± 0.31 g
same,Tumor Volume (mm3) (d 1),"[4]; 786-O nude mice, 50 mg/kg",96.82 ± 8.52 mm3
same,Tumor Volume (mm3) (d30),"[4]; 786-O nude mice, 50 mg/kg",982.68 ± 265.02 mm3
same,Inhibition Rate (%),"[4]; 786-O nude mice, 100 mg/kg",60.00%
same,Relative Tumor Proliferation Rate (T/C),"[4]; 786-O nude mice, 100 mg/kg",35.74%
same,Relative Tumor Volume (RTV),"[4]; 786-O nude mice, 100 mg/kg",6.79 ± 1.65
same,Tumor Weight,"[4]; 786-O nude mice, 100 mg/kg",0.85 ± 0.16 g
same,Tumor Volume (mm3) (d 1),"[4]; 786-O nude mice, 100 mg/kg",103.26 ± 9.71 mm3
same,Tumor Volume (mm3) (d30),"[4]; 786-O nude mice, 100 mg/kg",701.57 ± 127.91 mm3
same,Relative Tumor Proliferation Rate (T/C),[4]; [14],35.74%
same,tumor growth inhibition rate,[4]; [14],60.00%
same,Relative Tumor Proliferation Rate (T/C),[4]; [15],76.92%
same,tumor growth inhibition rate,[4]; [15],19.69%
same,tumor volume and relative tumor volume compared with the model group,"[4]; 786-O, low, medium and high doses, P<0.05",significantly lower
same,Relative Tumor Proliferation Rate (T/C),[4]; [16],53.61%
same,tumor growth inhibition rate,[4]; [16],41.09%
same,mouse weight compared with the model group,"[4]; mouse, in vivo",no significant changes
same,Body Weight (g) (d1),"[4]; mouse, in vivo, 25 mg/kg",22.05 ± 0.71 g
same,Body Weight (g) (d30),"[4]; mouse, in vivo, 25 mg/kg",23.33 ± 0.54 g
same,Body Weight (g) (d1),"[4]; mouse, in vivo, 50 mg/kg",22.42 ± 0.54 g
same,Body Weight (g) (d30),"[4]; mouse, in vivo, 50 mg/kg",23.42 ± 0.50 g
same,Body Weight (g) (d1),"[4]; mouse, in vivo, 100 mg/kg",22.33 ± 0.41 g
same,Body Weight (g) (d30),"[4]; mouse, in vivo, 100 mg/kg",23.45 ± 0.91 g
